From ChEMBL document CHEMBL3097994, “Simplified captopril analogues as NDM-1 inhibitors” (Bioorg Med Chem Lett, 2014) come the findings set out here.

A short description of assay [1]: Inhibition of NDM-1 (unknown origin) using imipenem as substrate by spectrophotometric analysis.
The nature of assay [2]: Inhibition of NDM-1 (unknown origin) using imipenem as substrate at 1 mM by spectrophotometric analysis.
Assay [3] can be described thus: Inhibition of NDM-1 (unknown origin).

The source made the active and inactive calls. The rule behind the calls is not given here. A value given as a limit tells only on which side of the number the result lay.

As usually defined, the IC50 is the concentration that gives 50% inhibition. Read a low IC50 as higher potency. Turning to `Cc1ccccc1CNC(=O)[C@H](C)CS`, in assay [1], the IC50 was over 200 µM.

Regarding `CNc1ccccc1NC(=O)C(C)CS` (stereo not drawn), in assay [2], the inhibition entry was “inactive”.

In turn, `C[C@@H](CS)C(=O)O` displayed an IC50 in assay [1] of 53 µM.

In assay [1], `CC(CS)C(=O)Nc1ncc[nH]1` (stereo not drawn) returned an IC50 of over 200 µM.

For the compound `CON(C)C(=O)[C@@H](C)CS`, half-maximal inhibition in assay [1] (IC50) required 48 µM. That is a double-digit micromolar value.

Consider `CONC(=O)[C@@H](C)CS`, for which half-maximal inhibition in assay [1] (IC50) was put at 92 µM.

With `C[C@H](CS)C(=O)NCc1ccc(O)cc1`, the IC50 in assay [1] was over 200 µM.

The compound `C[C@H](CS)C(=O)NCc1ccccc1O` came in with an IC50 in assay [1] of 5 µM.

In the case of `C[C@@H](CS)C(=O)NCc1ccccc1`, in assay [1], the IC50 was determined as 1.5 µM.

On to `CC(CS)C(=O)Nc1ccc(F)cc1` (stereo not drawn), for which, in assay [1], the IC50 was over 200 µM.

Take `CC(CS)C(=O)NCc1ccc(F)cc1` (stereo not drawn): the IC50 in assay [1] is over 200 µM.

Consider `OCC(S)CS` (stereo not drawn) [DIMERCAPROL], for which the midpoint of inhibition in assay [1], the IC50, lay at 10.4 µM.

With `C[C@H](CS)C(=O)O`, the IC50 in assay [1] worked out at 81 µM. Compared with the last compound, the IC50 is about 7.8-fold higher.

Turning to `Cc1coc(NC(=O)C(C)CS)n1` (stereo not drawn), the IC50 in assay [1] was determined as 21 µM.

With `CC(CS)C(=O)NCCc1ccccc1` (stereo not drawn), the IC50 in assay [1] is over 200 µM.

Compound `CC(CS)C(=O)Nc1cccc(F)c1` (stereo not drawn) had an IC50 in assay [1] of over 200 µM.

For the compound `CSCCNC(=O)[C@H](C)CS`, in assay [1], the IC50 is 13 µM.

As for `CC(CS)C(=O)Nc1nccs1` (stereo not drawn), the IC50 in assay [1] was over 200 µM.

Compound `C[C@H](CS)C(=O)NCCS(C)(=O)=O` yielded an IC50 in assay [1] of 120 µM.

As for `CONC(=O)[C@H](C)CS`, in assay [1], half-maximal inhibition (IC50) was put at 55 µM.

`CC(CS)C(=O)NCCc1cccs1` (stereo not drawn) gave an IC50 in assay [1] of over 200 µM.

The compound `CC(CS)C(=O)O` (racemic) gave an IC50 in assay [1] of 56 µM.

In the case of `CC(CS)C(=O)Nc1ccccc1` (stereo not drawn), the IC50 in assay [1] was 135 µM.

In assay [1], `CON(C)C(=O)[C@H](C)CS` registered an IC50 of 20 µM. This IC50 is about 6.8-fold lower than that of the compound before.

For `CC(CS)C(=O)NCc1ccco1` (stereo not drawn), the IC50 in assay [1] is over 200 µM.

Take `CCCCNC(=O)C(C)CS` (stereo not drawn): the IC50 in assay [1] was 20 µM.

Regarding `COC(=O)C(C)CS` (stereo not drawn), the inhibition entry in assay [2] was “inactive”.

In turn, `CC(CO)CS` (stereo not drawn) gave an IC50 in assay [1] of 15 µM.

Turning to `COc1ccc(CONC(=O)C(C)CS)cc1` (stereo not drawn), the IC50 in assay [1] is over 200 µM.

Consider `C[C@H](CS)C(=O)N1CCC[C@H]1C(=O)O` [CAPTOPRIL], for which 39 µM corresponded to half-maximal inhibition in assay [3] (IC50). This counts as double-digit micromolar.

Take `CC(CS)C(=O)N1CCOCC1` (stereo not drawn): the inhibition entry in assay [2] was “inactive”.

In assay [1], `CC(CS)C(=O)Nc1ncc(Br)s1` (stereo not drawn) had an IC50 of 52 µM.

`C[C@H](CS)C(=O)NCc1ccccc1` registered a half-inhibitory concentration (IC50) in assay [1] of 5 µM.
